Data reported in patent publication US20260209180A1, “PROTEASE INHIBITORS FOR TREATING OR PREVENTING CORONAVIRUS INFECTION” (Merck Sharp & Dohme LLC, priority 2023, published 2026).

Molecular target: SARS2 coronavirus 3CL protease (Severe acute respiratory syndrome coronavirus 2, UniProt P0DTD1)
Assay: SARS2 Coronavirus 3CL Protease Assay (FRET)
Assay type: biochemical
Conditions: 5 nM protease pre-incubated with compound 30 minutes; 15 uM peptide substrate; 4 h room temperature; read-out: FRET Potency (nM); IC50 values in the SARS2 3CLPro FRET assay
Procedure: The enzymatic activity of SARS2 coronavirus 3CL protease was determined in a FRET (fluorescence resonance energy transfer)-based assay measuring the cleavage of a peptide substrate by recombinantly expressed and purified enzyme. Cleavage of the peptide SEQ ID NO: 1 (CPC Scientific) by SARS2 3CL protease was measured in reaction buffer (50 mM Hepes pH 7.5, 0.01% Triton X-100, 0.01% BSA, 2 mM DTT). […] Room temperature reactions (4 h) were quenched by addition of a high dose of inhibitor and read on an appropriate plate reader (excitation wavelength=495 nm, emission wavelength=520 nm). Data were analyzed by a standard 4 parameter fit to determine IC50 values.

SMILES	IC50
CC(F)(F)CC[C@H](NC(=O)c1cc(Cl)ccc1NC(=O)c1cccc(C(F)(F)F)c1)C(=O)C(=O)NC1CC1 [Example 12, 5-chloro-N-[(1S)-1-[2-(cyclopropylamino)-2-oxo-acetyl]-4.4-difluoro-pentyl]-2-[[3-(trifluoromethyl)benzoyl]amino]benzamide]	7.9 nM
CNC(=O)C(=O)[C@H](CCC(C)F)NC(=O)c1cc(Cl)ccc1NC(=O)OC (single isomer, unassigned) [Example 6A]	25.8 nM
CNC(=O)C(=O)[C@H](CCC(C)(F)F)NC(=O)c1cc(Cl)ccc1NC(=O)C(C)c1cscn1 (stereo partly drawn) [Example 10, 5-chloro-N-[(1S)-4,4-difluoro-1-[2-(methylamino)-2-oxo-acetyl]pentyl]-2-(2-thiazol-4-ylpropanoylamino)benzamide]	7 nM
CNC(=O)C(=O)[C@H](CCC(C)(F)F)NC(=O)c1cc(Cl)ccc1NC(=O)C1CCc2scnc21 (stereo partly drawn) [Example 15, N-[4-chloro-2-[[(1S)-4,4-difluoro-1-[2-(methylamino)-2-oxo-acetyl]pentyl]carbamoyl]phenyl]-5,6-dihydro-4H-cyclopenta[d]thiazole-4-carboxamide]	8.4 nM
CC(F)(F)CC[C@H](NC(=O)c1cc(Cl)ccc1NC(=O)CCC(F)(F)F)C(=O)C(N)=O [Example 53, 5-chloro-N-[(1S)-4,4-difluoro-1-oxamoyl-pentyl]-2-(4,4,4-trifluorobutanoylamino) benzamide]	97.5 nM
COC(=O)N[C@H](C(=O)Nc1ccc(Cl)cc1C(=O)N[C@@H](CCC(C)(F)F)C(=O)C(=O)NC1CC1)C(C)(C)C [Example 3, Methyl ((S)-1-((4-chloro-2-(((S)-1-(cyclopropylamino)-6,6-difluoro-1,2-dioxoheptan-3-yl)carbamoyl)phenyl)amino)-3,3-dimethyl-1-oxobutan-2-yl)carbamate]	24 nM
CNC(=O)C(=O)[C@H](CCC(C)(F)F)NC(=O)c1cc(Cl)ccc1NC(=O)C1CC12CCOCC2 (stereo partly drawn) [Example 11, N-[4-chloro-2-[[(1S)-4,4-difluoro-1-[2-(methylamino)-2-oxo-acetyl]pentyl]carbamoyl]phenyl]-6-oxaspiro[2.5]octane-2-carboxamide]	7.7 nM
CNC(=O)C(=O)[C@H](CCC(C)(F)F)NC(=O)c1cc(Cl)ccc1NC(=O)OC1CC1 [Example 59, cyclopropyl N-[4-chloro-2-[[(1S)-4,4-difluoro-1-[2-(mcthylamino)-2-oxo-acetyl]pentyl]carbamoyl]phenyl]carbamate]	13.1 nM
CNC(=O)C(=O)[C@H](CCC(C)(F)F)NC(=O)c1cc(Cl)cnc1NC(=O)OC [Example 56, methyl N-[5-chloro-3-[[(1S)-4,4-difluoro-1-[2-(methylamino)-2-oxo-acetyl]pentyl]carbamoyl]-2-pyridyl]carbamate]	4.2 nM
CNC(=O)C(=O)[C@H](CCC(C)(F)F)NC(=O)c1cc(F)cnc1NC(=O)c1cccc(C(F)(F)F)c1 [Example 18, N-[(1S)-4,4-difluoro-1-[2-(methylamino)-2-oxo-acetyl]pentyl]-5-fluoro-2-[[3-(trifluoromethyl)benzoyl]amino]pyridine-3-carboxamide]	9.8 nM
CNC(=O)C(=O)[C@H](CCC(C)(F)F)NC(=O)c1cc(Cl)ccc1NC(=O)C1CC12CC2 (single isomer, unassigned) [Example 33]	21.5 nM
CNC(=O)C(=O)[C@H](CCC(C)F)NC(=O)c1cc(Cl)ccc1NC(=O)OC (single isomer, unassigned) [Example 6B]	154 nM
CNC(=O)C(=O)[C@H](CCC(C)(F)F)NC(=O)c1cc(Cl)cnc1NC(=O)C12CC(F)(C1)C2 [Example 38, 5-chloro-N-[(1S)-4,4-difluoro-1-[2-(methylamino)-2-oxo-acetyl]pentyl]-2-[(3-fluorobicyclo[1.1.1]pentane-1-carbonyl)amino]pyridine-3-carboxamide]	40.4 nM
